PMC3242765, “Inhibitors of Alphavirus Entry and Replication Identified with a Stable Chikungunya Replicon Cell Line and Virus-Based Assays” (PLoS ONE, 2011)

System: SFV-Rluc
Details: for SFV replication % left: primary screening of chemical libraries, compounds tested at 50 µM; for % left (remaining SFV replication): Supplementary Table 2, moderately active compounds (25 - 60% remaining), primary screen at 50 µM

| SMILES | SFV replication % left (surviving fraction, remaining percentage of SFV replication) [%] | SFV replication % left [%] | % left (remaining SFV replication) [%] |
| --- | --- | --- | --- |
| CC(C)NCC(O)COc1ccc(CC(N)=O)cc1 (stereo not shown) [Atenolol] | 44.2 | – | – |
| COc1ccc(-c2cc(=O)c3c(O)cc(O)cc3o2)cc1 [NC-001] | – | 78.1 | – |
| O=c1cc(-c2ccccc2)oc2c1ccc1ccccc12 [NC-002] | – | 14.6 | – |
| O=c1cc(-c2ccc(O)cc2)oc2cc(O)cc(O)c12 [NC-003] | – | 18.0 | – |
| O=C1O[C@H]([C@@H](O)CO)C(O)=C1O [NC-004] | – | 81.4 | – |
| O=C(O)c1ccccc1 [NC-005] | – | 71.6 | – |
| O=C(c1ccccc1)c1cc2c(ccc3ccccc32)oc1=O [NC-006] | – | 39.9 | 39.9 |
| O=c1oc2cc(O)ccc2cc1-c1nc2ccccc2o1 [NC-007] | – | 21.0 | – |
| COc1c2ccoc2cc2oc(=O)ccc12 [NC-008] | – | 46.8 | – |
| O=C(O)/C=C/c1ccc(O)c(O)c1 [NC-010] | – | 98.7 | – |
| Oc1cc(O)c2c(c1)O[C@H](c1ccc(O)c(O)c1)[C@@H](O)C2 [NC-011] | – | 64.5 | – |
| Oc1ccccc1O [NC-012] | – | 58.4 | – |
| O=c1cc(-c2ccccc2)oc2cc(O)cc(O)c12 [NC-013] | – | 18.1 | – |
| O=C(O)/C=C/c1ccccc1O [NC-014] | – | 77.6 | – |
| Cc1cc(=O)oc2c3c4c(cc12)CCCN4CCC3 [NC-015] | – | 34.6 | 34.6 |
| CCN(CC)c1ccc2cc(-c3nc4ccccc4n3C)c(=O)oc2c1 [NC-016] | – | 12.3 | – |
| CCN(CC)c1ccc2cc(-c3nc4ccccc4[nH]3)c(=O)oc2c1 [NC-017] | – | 37.3 | 37.3 |
| O=c1ccc2ccccc2o1 [NC-018] | – | 68.8 | – |
| Oc1cc(O)c2cc(O)c(-c3ccc(O)c(O)c3)[o+]c2c1.[Cl-] [NC-019] | – | 24.5 | – |
| O=c1c(-c2ccc(O)cc2)coc2cc(O)ccc12 [NC-020] | – | 76.6 | – |
| O=c1ccc2ccc(O)c(O)c2o1 [NC-021] | – | 81.7 | – |
| CCN(CC)c1ccc2cc(C(=O)c3cccs3)c(=O)oc2c1 [NC-022] | – | 15.6 | – |
| O=C(O)c1cccc(O)c1O [NC-023] | – | 93.1 | – |

| SMILES | SFV replication % left (surviving fraction, remaining percentage of SFV replication) [%] | SFV replication % left [%] | % left (remaining SFV replication) [%] |
| --- | --- | --- | --- |
| O=C(O)c1cc(O)ccc1O [NC-024] | – | 127.8 | – |
| O=C(O)c1c(O)cccc1O [NC-025] | – | 118.7 | – |
| O=C(O)c1ccc(O)c(O)c1 [NC-026] | – | 124.5 | – |
| O=C(O)c1cc(O)cc(O)c1 [NC-027] | – | 6.9 | – |
| Cc1ccc(C)c(O)c1 [NC-029] | – | 84.6 | – |
| CN(C)c1cccc2c(S(=O)(=O)Cl)cccc12 [NC-032] | – | 4.6 | – |
| O=c1oc2c(O)c(O)cc3c(=O)oc4c(O)c(O)cc1c4c23 [NC-033] | – | 64.9 | – |
| Oc1cc(O)c2c(c1)O[C@H](c1ccc(O)c(O)c1)[C@H](O)C2 [NC-034] | – | 97.1 | – |
| O=C(O[C@@H]1Cc2c(O)cc(O)cc2O[C@@H]1c1ccc(O)c(O)c1)c1cc(O)c(O)c(O)c1 [NC-035] | – | 94.8 | – |
| Oc1cc(O)c2c(c1)O[C@H](c1cc(O)c(O)c(O)c1)[C@H](O)C2 [NC-036] | – | 101.9 | – |
| O=C(O[C@@H]1Cc2c(O)cc(O)cc2O[C@@H]1c1cc(O)c(O)c(O)c1)c1cc(O)c(O)c(O)c1 [NC-037] | – | 155.3 | – |
| CCOc1ccc2c(c1)C(C)=CC(C)(C)N2 [NC-038] | – | 96.4 | – |
| COc1cc(/C=C/C(=O)O)ccc1O [NC-039] | – | 63.4 | – |
| O=c1cc(-c2ccccc2)oc2ccccc12 [NC-040] | – | 52.2 | – |
| O=C(O)c1cc(O)c(O)c(O)c1 [NC-041] | – | 148.8 | – |
| O=c1c(-c2ccc(O)cc2)coc2cc(O)cc(O)c12 [NC-042] | – | 45.6 | 45.6 |
| C[C@]12CC[C@H](O)C[C@H]1CC[C@@H]1[C@@H]2CC[C@]2(C)[C@@H](C3=CC(=O)OC3)[C@@H](O)C[C@]12O [NC-043] | – | 102.7 | – |
| O=c1c(O)c(-c2ccc(O)c(O)c2)oc2c(O[C@@H]3O[C@H](CO)[C@@H](O)[C@H](O)[C@H]3O)c(O)cc(O)c12 [NC-044] | – | 105.8 | – |
| O=C(OC[C@H]1OC(O)[C@@](O)(COC(=O)c2cc(O)c(O)c(O)c2)[C@@H]1O)c1cc(O)c(O)c(O)c1 (stereo partly shown) [NC-045] | – | 14.7 | – |
| COc1ccc([C@@H]2CC(=O)c3c(O)cc(O[C@@H]4O[C@H](CO[C@@H]5O[C@@H](C)[C@H](O)[C@@H](O)[C@H]5O)[C@@H](O)[C@H](O)[C@H]4O)cc3O2)cc1O [NC-046] | – | 77.7 | – |
| O=C(CO)c1ccccc1 [NC-047] | – | 129.7 | – |
| CC(=O)c1cccc(O)c1 [NC-048] | – | 125.8 | – |
| CC(=O)c1ccc(O)cc1 [NC-049] | – | 29.4 | – |

| SMILES | SFV replication % left (surviving fraction, remaining percentage of SFV replication) [%] | SFV replication % left [%] | % left (remaining SFV replication) [%] |
| --- | --- | --- | --- |
| O=C(O)Cc1ccccc1O [NC-050] | – | 7.3 | – |
| O=C(O)Cc1cccc(O)c1 [NC-051] | – | 110.8 | – |
| O=C(O)Cc1ccc(O)cc1 [NC-052] | – | 103.6 | – |
| Oc1ccc(O)cc1 [NC-053] | – | 16.9 | – |
| CC(C)OC(=O)c1cc(O)c(O)c(O)c1 [NC-054] | – | 124.0 | – |
| O=C(O)c1ccc(O)cc1O [NC-055] | – | 32.1 | 32.1 |
| COc1cc(-c2oc3cc(O)cc(O)c3c(=O)c2O)ccc1O [NC-056] | – | 28.9 | 28.9 |
| O=c1c(O)c(-c2ccc(O)cc2)oc2cc(O)cc(O)c12 [NC-057] | – | 2.9 | – |
| COc1c2occc2c(OC)c2c(=O)cc(C)oc12 [NC-058] | – | 120.6 | – |
| CCCCCCCCCCCCOC(=O)c1cc(O)c(O)c(O)c1 [NC-059] | – | 12.3 | – |
| Oc1cc(O)c2c(c1)OC(c1ccc(O)c(O)c1)C(O)C2O (stereo not shown) [NC-060] | – | 136.3 | – |
| O=c1cc(-c2ccc(O)c(O)c2)oc2cc(O)cc(O)c12 [NC-061] | – | 71.3 | – |
| O=c1cc(-c2ccc(O)c(O)c2)oc2cc(O[C@@H]3O[C@H](CO)[C@@H](O)[C@H](O)[C@H]3O)cc(O)c12 [NC-062] | – | 17.8 | – |
| COc1cc(-c2[o+]c3cc(O)cc(O[C@@H]4O[C@H](CO)[C@@H](O)[C@H](O)[C@H]4O)c3cc2O[C@@H]2O[C@H](CO)[C@@H](O)[C@H](O)[C@H]2O)cc(OC)c1O.[Cl-] [NC-063] | – | 15.4 | – |
| COC(=O)c1cc(O)c(O)c(O)c1 [NC-064] | – | 67.8 | – |
| Cc1cc(=O)oc2cc(O)ccc12 [NC-065] | – | 12.0 | – |
| CCN(CC)CCCC(C)Nc1cc(/C=C/c2ccccc2Cl)nc2cc(Cl)ccc12 (stereo not shown) [NC-066] | – | 45.8 | 45.8 |
| O.O.O=c1c(O)c(-c2ccc(O)cc2O)oc2cc(O)cc(O)c12 [NC-067] | – | 82.9 | – |
| O=c1c(O)c(-c2cc(O)c(O)c(O)c2)oc2cc(O)cc(O)c12 [NC-068] | – | 2.0 | – |
| O=C1C[C@@H](c2ccc(O)cc2)Oc2cc(O)cc(O)c21 [NC-069] | – | -0.0736 | – |
| Cc1ccc(O)c(O)c1 [NC-070] | – | 111.1 | – |
| CC(Cc1ccc(O)c(O)c1)C(C)Cc1ccc(O)c(O)c1 (stereo not shown) [NC-071] | – | 35.6 | 35.6 |
| CCCCCCCCOC(=O)c1cc(O)c(O)c(O)c1 [NC-072] | – | 134.4 | – |

| SMILES | SFV replication % left (surviving fraction, remaining percentage of SFV replication) [%] | SFV replication % left [%] | % left (remaining SFV replication) [%] |
| --- | --- | --- | --- |
| O=C(O)c1ccccc1C(=O)O [NC-073] | – | 143.7 | – |
| Oc1cc(O)c2c(c1)O[C@H](c1ccc(O)c(O)c1)[C@H](O)[C@H]2c1c(O)cc(O)c2c1O[C@H](c1ccc(O)c(O)c1)[C@@H](O)C2 [NC-074] | – | 128.1 | – |
| Oc1cc(O)c2c(c1)O[C@H](c1ccc(O)c(O)c1)[C@H](O)[C@H]2c1c(O)cc(O)c2c1O[C@H](c1ccc(O)c(O)c1)[C@H](O)C2 [NC-075] | – | 93.7 | – |
| CCCOC(=O)c1cc(O)c(O)c(O)c1 [NC-076] | – | 33.6 | – |
| O=C(O)c1ccc(O)c(O)c1 [NC-077] | – | 21.1 | – |
| Oc1cccc(O)c1O [NC-078] | – | 22.7 | – |
| O=c1c(O)c(-c2ccc(O)c(O)c2)oc2cc(O)c(O)c(O)c12 [NC-079] | – | 90.2 | – |
| O=c1c(O)c(-c2ccc(O)c(O)c2)oc2cc(O)cc(O)c12 [NC-080] | – | 125.8 | – |
| COc1cc(O)c2c(=O)c(OC)c(-c3ccc(OC)c(OC)c3)oc2c1 [NC-081] | – | 65.0 | – |
| C[C@@H]1O[C@@H](Oc2c(-c3ccc(O)c(O)c3)oc3cc(O)cc(O)c3c2=O)[C@H](O)[C@H](O)[C@H]1O.O.O [NC-083] | – | 11.4 | – |
| O=C(O)[C@]1(O)C[C@@H](O)[C@@H](O)[C@H](O)C1 [NC-084] | – | 98.2 | – |
| Oc1cccc(O)c1 [NC-085] | – | 83.0 | – |
| Oc1ccc(C=Cc2cc(O)cc(O)c2)cc1 [NC-086] | – | 103.4 | – |
| COc1cc(O)c2c(=O)c(O)c(-c3ccc(O)c(O)c3)oc2c1 [NC-087] | – | 119.1 | – |
| O=C(/C=C/c1ccc(O)c(O)c1)O[C@H](Cc1ccc(O)c(O)c1)C(=O)O [NC-088] | – | 120.3 | – |
| C[C@@H]1O[C@@H](OC[C@H]2O[C@@H](Oc3c(-c4ccc(O)c(O)c4)oc4cc(O)cc(O)c4c3=O)[C@H](O)[C@@H](O)[C@@H]2O)[C@H](O)[C@H](O)[C@H]1O [NC-090] | – | 44.1 | 44.1 |
| OCc1ccccc1O[C@@H]1O[C@H](CO)[C@@H](O)[C@H](O)[C@H]1O [NC-091] | – | 104.4 | – |
| O=C(O)c1ccccc1O [NC-092] | – | 69.1 | – |
| COc1cc(C2Oc3cc([C@H]4Oc5cc(O)cc(O)c5C(=O)[C@@H]4O)ccc3OC2CO)ccc1O (stereo partly shown) [NC-093] | – | 22.4 | – |
| COc1cc(/C=C/C(=O)O)cc(OC)c1O [NC-095] | – | 22.0 | – |
| C=CCC(=NOS(=O)(=O)[O-])SC1OC(CO)C(O)C(O)C1O.O.[K+] (stereo not shown) [NC-096] | – | 47.6 | 47.6 |
